Experimental data published in PubChem BioAssay (NCI).
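In this assay, cells in 96-well plates receive the compound at five concentrations for 48 hours. Endpoints are linearly interpolated between the surrounding concentrations. GI50 = concentration required for 50% inhibition of growth. TGI is the concentration that stops growth completely.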

How the values were obtained:
Assay in all cases: growth of human tumour cells (NCI), 48 h
HOP-92 NSCLC = system: HOP-92 NSCLC
KM12 colon = system: KM12 colon
MDA-MB-435 = system: MDA-MB-435
NCI/ADR-RES ovarian = system: NCI/ADR-RES ovarian
OVCAR-5 ovarian = system: OVCAR-5 ovarian
RXF 393 renal = system: RXF 393 renal
SF-295 CNS = system: SF-295 CNS
SK-MEL-5 melanoma = system: SK-MEL-5 melanoma
HCT-116 colon = system: HCT-116 colon
HT29 colon = system: HT29 colon

CC1=C(C(=O)Nc2ccc(Cl)c(Cl)c2)C(c2ccccc2O)NC(=O)N1 (stereo not given)
GI50 (HOP-92 NSCLC): > 50 µM | TGI (HOP-92 NSCLC): > 50 µM | GI50 (KM12 colon): 16.9 µM | TGI (KM12 colon): > 50 µM | GI50 (MDA-MB-435): 27.4 µM | TGI (MDA-MB-435): > 50 µM | GI50 (NCI/ADR-RES ovarian): > 50 µM | TGI (NCI/ADR-RES ovarian): > 50 µM | GI50 (OVCAR-5 ovarian): > 50 µM | TGI (OVCAR-5 ovarian): > 50 µM | GI50 (RXF 393 renal): > 50 µM | TGI (RXF 393 renal): > 50 µM | GI50 (SF-295 CNS): 40.3 µM | TGI (SF-295 CNS): > 50 µM | GI50 (SK-MEL-5 melanoma): 22.5 µM | TGI (SK-MEL-5 melanoma): > 50 µM

COc1cc(/C=C(\C#N)C(N)=C(C#N)C#N)cc(O)c1O
TGI (HCT-116 colon): > 100 µM | TGI (HOP-92 NSCLC): > 100 µM | TGI (HT29 colon): > 100 µM | TGI (KM12 colon): > 100 µM | TGI (MDA-MB-435): > 100 µM | TGI (NCI/ADR-RES ovarian): > 100 µM | TGI (OVCAR-5 ovarian): > 100 µM | TGI (RXF 393 renal): > 100 µM | TGI (SF-295 CNS): > 100 µM | TGI (SK-MEL-5 melanoma): > 100 µM

COc1cnc2cc(C(=O)O)c3ccccc3c2c1
TGI (HCT-116 colon): > 100 µM | TGI (HOP-92 NSCLC): > 100 µM | TGI (HT29 colon): > 100 µM | TGI (KM12 colon): > 100 µM | TGI (MDA-MB-435): > 100 µM | TGI (NCI/ADR-RES ovarian): > 100 µM | TGI (OVCAR-5 ovarian): > 100 µM | TGI (RXF 393 renal): > 100 µM | TGI (SF-295 CNS): > 100 µM | TGI (SK-MEL-5 melanoma): > 100 µM

COc1ccc(CCN2CCc3c(C)c(C#N)c4nc5ccccc5n4c32)cc1OC
TGI (HCT-116 colon): > 100 µM | TGI (HOP-92 NSCLC): 90.6 µM | TGI (HT29 colon): > 100 µM | TGI (MDA-MB-435): 45 µM | TGI (NCI/ADR-RES ovarian): > 100 µM | TGI (OVCAR-5 ovarian): > 100 µM | TGI (RXF 393 renal): > 100 µM | TGI (SF-295 CNS): > 100 µM | TGI (SK-MEL-5 melanoma): 52 µM

Cc1ccc(C(C)C)cc1NC(=O)Nc1ccc([N+](=O)[O-])cc1
GI50 (HCT-116 colon): 2.45 µM | TGI (HCT-116 colon): 7.13 µM | GI50 (HOP-92 NSCLC): 2.42 µM | TGI (HOP-92 NSCLC): 8.89 µM | GI50 (HT29 colon): 3.2 µM | TGI (HT29 colon): 10.2 µM | GI50 (KM12 colon): 2.25 µM | TGI (KM12 colon): 5.91 µM | GI50 (MDA-MB-435): 2.19 µM | TGI (MDA-MB-435): 6.5 µM | GI50 (NCI/ADR-RES ovarian): 2.61 µM | TGI (NCI/ADR-RES ovarian): 7.7 µM | GI50 (OVCAR-5 ovarian): 2.92 µM | TGI (OVCAR-5 ovarian): 8.99 µM | GI50 (RXF 393 renal): 2.81 µM | TGI (RXF 393 renal): 13.5 µM | GI50 (SF-295 CNS): 1.84 µM | TGI (SF-295 CNS): 5.11 µM | GI50 (SK-MEL-5 melanoma): 1.55 µM | TGI (SK-MEL-5 melanoma): 2.9 µM

CC1COCC(C)N1C1=C(Cl)C(=O)c2ccccc2C1=O (stereo not given)
GI50 (HCT-116 colon): 1.65 µM | TGI (HCT-116 colon): 3.01 µM | GI50 (HOP-92 NSCLC): 0.554 µM | TGI (HOP-92 NSCLC): 2.06 µM | GI50 (HT29 colon): 17.5 µM | TGI (HT29 colon): 45.6 µM | GI50 (KM12 colon): 12.4 µM | TGI (KM12 colon): 25.4 µM | GI50 (MDA-MB-435): 1.35 µM | TGI (MDA-MB-435): 2.73 µM | GI50 (NCI/ADR-RES ovarian): 3.36 µM | TGI (NCI/ADR-RES ovarian): 14.1 µM | GI50 (OVCAR-5 ovarian): 17 µM | TGI (OVCAR-5 ovarian): 32 µM | GI50 (RXF 393 renal): 1.9 µM | TGI (RXF 393 renal): 4.22 µM | GI50 (SF-295 CNS): 2.94 µM | TGI (SF-295 CNS): 17.7 µM | GI50 (SK-MEL-5 melanoma): 6.83 µM | TGI (SK-MEL-5 melanoma): 19.9 µM

C=[CH][Sn]([CH]=C)([O]c1cccc2cccnc12)[O]c1cccc2cccnc12
GI50 (HCT-116 colon): 1.12 µM | TGI (HCT-116 colon): 2.46 µM | GI50 (HOP-92 NSCLC): 6.52 µM | TGI (HOP-92 NSCLC): 19.5 µM | GI50 (HT29 colon): 3.26 µM | TGI (HT29 colon): 7.14 µM | GI50 (KM12 colon): 3.2 µM | TGI (KM12 colon): 7.34 µM | GI50 (MDA-MB-435): 7.86 µM | TGI (MDA-MB-435): 40.8 µM | GI50 (NCI/ADR-RES ovarian): 9.94 µM | TGI (NCI/ADR-RES ovarian): > 100 µM | GI50 (OVCAR-5 ovarian): 5.16 µM | TGI (OVCAR-5 ovarian): 13.8 µM | GI50 (RXF 393 renal): 0.28 µM | TGI (RXF 393 renal): 1.21 µM | GI50 (SF-295 CNS): 5.27 µM | TGI (SF-295 CNS): 19.4 µM | GI50 (SK-MEL-5 melanoma): 1.94 µM | TGI (SK-MEL-5 melanoma): 5.44 µM
